# Measured values reported in patent US9962383B2, “Compounds, compositions and methods of agelastatin alkaloids” (Massachusetts Institute of Technology, priority 2013, dated 2018).
# How the values were obtained:
# [1] = system: CEM; experiment: 48-hour IC50 by MTS, CEM acute lymphoblastic leukemia cells; assay type: cell-based, human
# Method: (§1) Cells were grown in media supplemented with fetal bovine serum (FBS) and antibiotics (100 μg/mL penicillin and 100 U/mL streptomycin). […] Cells were incubated at 37° C. in a 5% CO2, 95% humidity atmosphere.
# (§2) In a 96-well plate, compounds were pre-added as DMSO stocks (1% final) in triplicate to achieve final concentrations of 1 nM to 10 μM on a half log scale. DMSO and cell-free wells served as the live and dead control, respectively. […] IC50 values were determined from three or more independent experiments using TableCurve (San Jose, Calif.).
# [2] = system: U-937; experiment: 48-hour IC50 by MTS, U-937 lymphoma cells; assay type: cell-based, human
# Method: as §1, §2
# [3] = system: U-937 cells; experiment: Apoptosis in U-937 cells with Annexin V-FITC and propidium iodide; assay type: cell-based, human; conditions: 21 hours, flow cytometry
# Method: FIG. 3. […] Analysis of phosphatidylserine exposure and propidium iodide inclusion at 21 hours in U-937 cells. Compounds were tested at indicated concentrations and STS was used as a positive control for apoptosis. Samples were analyzed by flow cytometry for the relative timing of phosphatidylserine exposure relative to PI inclusion. FITC=fluorescein isothiocyanate; PI=propidium iodide; STS=staurosporine.
# DMSO stocks of compounds were added to a 24-well plate in singlicate (0.2% DMSO final). […] Following treatment, the cell suspensions were transferred to flow cytometry tubes and pelleted (500 g, 3 min). The media was removed by aspiration, and cells were resuspended in 200 μL AnnV binding buffer (10 mM HEPES, pH 7.4, 140 mM NaCl, 2.5 mM CaCl2) with 5 μg/mL PI and 1:90 dilution of AnnV. Samples were analyzed using flow cytometry.
# [4] = system: human cell lines (U-937, HeLa, A549, BT549, IMR90); experiment: Ability to induce cell death in the panel of five human cell lines (Table 3); assay type: cell-based; conditions: 48-hour exposure, 1 nM to 10 μM, cell lines of Table 3
# Method: Six (−)-agelastatins along with eight closely related derivatives prepared in the above examples were tested (Table 3). The six (−)-agelastatin alkaloids (1-6, respectively), (−)-O-methyl-di-epi-agelastatin A (50), (−)-dehydroagelastatin A (51), (−)-di-epi-agelastatin C (52), (+)-O-methyl-pre-agelastatin A and D (39 and 53, respectively), along with bicyclic pyrroles (+)-44, (+)-45, and triazone (+)-48 were tested for their ability to induce cell death in four human cancer cell lines (U-937, lymphoma; HeLa, cervical carcinoma; A549, non-small cell lung carcinoma; and BT549, breast carcinoma) and one immortalized normal human cell line (IMR90, lung fibroblasts) after a 48-hour exposure. […] Furthermore, enhanced activities in U-937 (20×) cell relative to the other cell lines (Table 3) were observed.
# (§3) Adherent cells (HeLa, A549, BT549, and IMR90) were added into 96-well plates (5,000 cells/well for HeLa cell line; 2,000 cells/well for A549, BT549, and IMR90 cell lines) in 100 μL media and were allowed to adhere for 2-3 hours. Compounds were solubilized in DMSO as 100× stocks, added directly to the cells (100 μL final volume), and tested over a range of concentrations (1 nM to 10 μM) in triplicate (1% DMSO final) on a half-log scale. DMSO and cell-free wells served as the live and dead control, respectively. After 48 h of continuous exposure, the plates were evaluated using the SRB colorimetric assay as described previously (V. Vichai, K. Kirtikara, Nature Prot., 2006, 1, 1112). Briefly, media was removed from the plate, and cells were fixed by the addition of 100 μL cold 10% trichloroacetic acid in water. After incubating at 4° C. for 1 h, the plates were washed in water and allowed to dry. Sulforhordamine B was added as a 0.057% solution in 1% acetic acid (100 μL), and the plates were incubated at room temperature for 30 min, washed in 1% acetic acid, and allowed to dry. The dye was solubilized by adding 10 mM Tris base solution (pH 10.5, 200 μL) and incubating at room temperature for 30 min Plates were read at λ=510 nm. IC50 values were determined from three or more independent experiments using TableCurve (San Jose, Calif.).
# In a 96-well plate, compounds were pre-added as DMSO stocks (1% final) in triplicate to achieve final concentrations of 1 nM to 10 μM on a half log scale. DMSO and cell-free wells served as the live and dead control, respectively. Suspension cells (U-937, CEM, CA46, Daudi, HL-60, and Jurkat; 10,000 cells/well) cells were distributed in 100 μL media to the compound-containing plate. After 48 h, cell viability was assessed by adding 20 μL of a PMS/MTS solution (A. H. Cory, T. C. Owen, J. A. Barltrop, J. G. Cory, Cancer Commun., 1991, 3, 207) to each well, allowing the dye to develop at 37° C. until the live control had processed MTS, and reading the absorbance at λ=490 nm. IC50 values were determined from three or more independent experiments using TableCurve (San Jose, Calif.).
# [5] = system: IMR90; experiment: 48-hour IC50 by SRB, IMR90  lung fibroblasts; assay type: cell-based, human; conditions: IMR90 immortalized lung fibroblasts
# Method: as §1
# as §3, with “After 48 h of continuous exposure, the plates were evaluated using the SRB colorimetric assay as described previously (V. Vichai, K. Kirtikara, Nature Prot., 2006, 1, 1112).” left out, “The dye was solubilized by adding 10 mM Tris base solution (pH 10.5, 200 μL) and incubating at room temperature for 30 min Plates were read at λ=510 nm.” left out
# [6] = system: Jurkat; experiment: 48-hour IC50 by MTS, Jurkat acute T-cell leukemia cells; assay type: cell-based, human
# Method: as §1, §2
# [7] = system: synchronized U-937 cells; experiment: Cell cycle arrest in thymidine-synchronized U-937 cells; assay type: cell-based, human; conditions: 16 hours, PI, flow cytometry
# Method: Samples were fixed, treated with an RNAse, stained with PI, and analyzed by flow cytometry. Taxol, a microtubule stabilizer, was used as a positive control. Error bars represent standard deviation of the mean, n=3. * p<0.01. PI=propidium iodide.
# U-937 cells were split to 50% confluency (250,000 cells/mL) and treated with 2 mM thymidine for 10 hours. The cells were then pelleted (500 g, 3 minutes) and washed with PBS before being resuspended in thymidine-free media and allowed to recover for 13 hours. The cells were then re-blocked with 2 mM thymidine for 10 hours, and then washed with PBS as before and resuspended in media (250,000 cells/mL).
# DMSO stocks of compounds were added to a 24-well plate in triplicate (0.2% DMSO final), after which 1 mL of the prepared cell suspension was added. Following a 16 h incubation, the cell suspensions were transferred to 2 mL tubes and pelleted (600 g, 3 min). The media was removed by aspiration, and the cells were fixed with 0.5 mL of ice cold 70% ethanol with vortexing. The samples were fully fixed at −20° C. for 3 hours. The samples were then pelleted (1000 g, 5 min) and the supernatant was removed via aspiration. […] Prior to reading, the samples were taken up in 150 μL of 50 μg/mL propidium iodide in PBS and transferred to flow cytometry tubes. Samples were analyzed based on whole, single cells.
# [8] = system: tubulin dynamics; experiment: Tubulin microscopy with HeLa cells; assay type: cell-based, human; conditions: 16 hours, confocal microscopy
# Method: HeLa cells were treated with compound for 16 hours, fixed, stained, and visualized using confocal microscopy.
# Round, 1.5 mm coverslips (No. 1.5) were sterilized with ultraviolet light and placed in a 12-well plate. HeLa cells (100,000 cells/well) were added and allowed to adhere for eight hours. Compounds were then added as DMSO stocks to achieve a final DMSO concentration of 1%, and the plates were returned to the incubator for 16 hours.
# Following incubation, the media was removed, and the coverslips were fixed with 0.5 mL Microtubulin Stabilizing Buffer (MTSB, 80 mM PIPES, pH 6.8, 1 mM MgCl2, 5 mM EGTA, 0.5% TX-100)+0.5% glutaraldehyde for 10 minutes at room temperature, after which the fixative was removed and the sample was quenched with the addition of 0.5 mL of freshly-prepared 1 mg/mL NaBH4 in PBS. After a 5 min incubation, the solution was removed by aspiration and the coverslips were washed with PBS.
# Coverslips were transferred to parafilm-lined culture dishes (cell-side up), and 40 μL of 50 μg/mL RNase A in Antibody Diluting Solution (AbDil, PBS, pH 7.4, 0.2% TX-100, 2% BSA, 0.1% NaN3) with 1:50 dilution of anti-α-tubulin-FITC antibody was added to all samples. The samples were allowed to incubate at room temperature in the dark for 2.5 hours, after which the coverslips were washed three times with PBS+0.1% TX-100. […]
# [9] = system: HL-60; experiment: 48-hour IC50 by MTS, HL-60 acute promyelocytic leukemia cells; assay type: cell-based, human
# Method: as §1, §2
# [10] = system: A549; experiment: 48-hour IC50 by SRB, A549 non-small cell lung carcinoma cells; assay type: cell-based, human
# Method: as §1
# as §3, with “After 48 h of continuous exposure, the plates were evaluated using the SRB colorimetric assay as described previously (V. Vichai, K. Kirtikara, Nature Prot., 2006, 1, 1112).” left out, “The dye was solubilized by adding 10 mM Tris base solution (pH 10.5, 200 μL) and incubating at room temperature for 30 min Plates were read at λ=510 nm.” left out
smiles,measurement,setting,value
"CN1C(=O)N[C@H]2[C@@H]3NC(=O)c4ccc(Br)n4[C@@H]3C[C@]21O [(−)-1, (−)-agelastatin A]",IC50,[1],20 ± 2 nM
same,IC50,[2],67 ± 3 nM
same,apoptosis (phosphatidylserine exposure and propidium iodide inclusion),[3],induced dose-dependent apoptosis
same,activity (ability to induce cell death) in words,[4],highest potency in all cell lines tested
same,IC50,[5],1110 ± 350 nM
same,IC50,[6],74 ± 7 nM
same,G2/M cell cycle arrest,[7],dose-dependent G2/M cell cycle arrest
same,effect on tubulin dynamics,[8],do not affect tubulin dynamics
same,IC50,[9],138 ± 66 nM
same,IC50,[10],1050 ± 140 nM
